Laboratory results reported in patent publication US11752139B2, “Therapeutic combinations of orally administered irinotecan and a p-gp inhibitor for the treatment of cancer” (priority 2018, dated 2023).
Like-named read-outs stand apart in the source and are kept apart here.

Assays:
[1] = Study 2: maximum tolerated dose of orally administered irinotecan with Compound A; type: in vivo, human; details: dosed five days of week one and week two during a three-week cycle
Experimental: Orally administered irinotecan was determined to have a MTD of 10 mg/m^2 per day when dosed five days of week one and week two during a three-week cycle.

[2] = Study 1: maximum tolerated dose of orally administered irinotecan with Compound A; type: in vivo, human; details: dosed five days of week one during a three-week cycle
Experimental: Orally administered irinotecan was determined to have a maximum tolerated dose (MTD) of 20 mg/m^2 per day when dosed five days of week one during a three-week cycle.

[3] = human, in vivo
clinical [4] = details: human, in vivo, po, N = 3; for AUC(0-t): AUC24 h
Experimental: (§1) A phase 1 dose escalation study was performed to determine the MTD and DLT of orally administered irinotecan in combination with 15 mg (on day 1 of a 21-day cycle) of HM30181A. The study was performed on cohorts of 3-6 subjects with advanced malignancies. Subjects had Hb (hemoglobin count) 9 gm/dL, ANC (absolute neutrophil count) 1.5×10^9/L, and platelets 100×10^9/L, as well as adequate hepatic and renal function, and ECOG (Eastern Cooperative Oncology Group Performance Status) 0-1, and were not homozygous for UGT1A1*28.

[5] = human, in vivo; remark: listed apart in the source
[6] = Study 2: pharmacokinetics of oral irinotecan and M1, 5-20 mg/m^2 per day for 10 days during a 21 day cycle; details: for AUC / Cmax: human, in vivo, oral, mean
[7] = Study 1: pharmacokinetics of oral irinotecan and M1, 5-30 mg/m^2 per day for five days during a 21 day cycle
[8] = Simple Emax model of exposure (AUCinf, Cmax) versus dose
clinical [9] = details: human, in vivo
clinical [10] = details: human, in vivo; remark: listed apart in the source
advanced malignancies = assay: Phase 1 dose escalation study of oral irinotecan with 15 mg HM30181A: response; type: in vivo, human; details: subjects with advanced malignancies; 15 mg HM30181A + oral irinotecan
Experimental: as §1

[11] = dose 240 mg/m^2 oral irinotecan + 15 mg HM30181A
[12] = dose 280 mg/m^2 oral irinotecan + 15 mg HM30181A
[13] = dose 320 mg/m^2 oral irinotecan + 15 mg HM30181A
[14] = 15 mg HM30181A + 20-320 mg/m^2 oral irinotecan, day 1 of 21-day cycle, 30 patients
[15] = 15 mg HM30181A + 20-320 mg/m^2 oral irinotecan, 30 patients
[16] = 320 mg/m^2 dose level, with 15 mg HM30181A

For CCc1c2c(nc3ccc(OC(=O)N4CCC(N5CCCCC5)CC4)cc13)-c1cc3c(c(=O)n1C2)COC(=O)[C@]3(O)CC [oral irinotecan, (4S)-4,11-Diethyl-4-hydroxy-3,14-dioxo-3,4,12,14-tetrahydro-1H-pyrano[3′,4′:6,7]indolizino[1,2-b]quinolin-9-yl 1,4′-bipiperidine-1′-carboxylate, reference compound], the MTD [1] was 10 mg/m^2 per day, the “maximum tolerated dose (MTD)” value [2] was 20 mg/m^2 per day and the AUC24 ([3]; 5 mg/m2) was 64.59 ng·h/mL. For the same molecule, the AUC24 ([3]; 10 mg/m2) was 209.12 ng·h/mL, the AUC24 ([3]; 15 mg/m2) was 379.56 ng·h/mL and the AUC24 ([3]; 25 mg/m2) was 481.39 ng·h/mL. The AUC24 ([3]; 30 mg/m2) was 454.54 ng·h/mL, the AUC(0-t) (clinical [4]; [11]) was 6960 ng·h/mL and the AUC(0-t) (clinical [4]; [12]) was 6040 ng·h/mL. It also gave an AUC(0-t) (clinical [4]; [13]) of 11300 ng·h/mL, a Cmax (clinical [4]; [11]) of 798 ng/mL and a Cmax (clinical [4]; [12]) of 763 ng/mL. The Cmax (clinical [4]; [13]) was 1060 ng/mL, the Tmax (clinical [4]; [11]) was 3 h and the Tmax (clinical [4]; [12]) was 2 h. For the same molecule, the Tmax (clinical [4]; [13]) was 3 h, the “Cmax compared with IV dosed irinotecan” value [5] was “below the range for 125 mg/m^2 of IV dosed irinotecan” and the “dose at which Cmax began to plateau” value [5] was 200 mg/m^2. The Tmax ([5]; po, 280 mg/m2) was 1 h, the Acute cholinergic diarrhea (15 mg HM30181A + 20-320 mg/m^2 oral irinotecan) was “not observed” and the “Treatment-related Grade 3-4 AEs, number of subjects” value [14] was 12 subjects. For the same molecule, the “Treatment-related Grade 3-4 AEs, share of subjects” value [14] was 40%, the “SAEs nausea or vomiting, number of subjects” value [15] was 4 subjects and the “Treatment-related SAEs, number of patients” value [15] was 6 patients. For the same molecule, the “vomiting (most common AEs), share of subjects” value [15] was 20%, the “DLTs, number of subjects” value [16] was 2 subjects and the “kind of DLTs” value [16] was “neutropenia and C. Difficile diarrhea”. For the same molecule, the pharmacokinetics versus dose ([6]; 5-20 mg/m^2 per day for 10 days during a 21 day cycle) was “increased proportionally with dose”, the AUC ([6]; 5 mg/m2, AUC24, Day 1, dose group 5 mg/m^2) was 72.1 ng·h/mL and the AUC ([6]; 5 mg/m2, AUC24, Day 12, dose group 5 mg/m^2) was 95.1 ng·h/mL. For the same molecule, the Cmax ([6]; 5 mg/m2, Cmax, Day 1, dose group 5 mg/m^2) was 9.65 ng/mL, the AUC ([6]; 10 mg/m2, AUC24, Day 1, dose group 10 mg/m^2) was 123 ng·h/mL and the AUC ([6]; 10 mg/m2, AUC24, Day 12, dose group 10 mg/m^2) was 186 ng·h/mL. It also gave a Cmax ([6]; 10 mg/m2, Cmax, Day 1, dose group 10 mg/m^2) of 15.5 ng/mL, a Cmax ([6]; 10 mg/m2, Cmax, Day 12, dose group 10 mg/m^2) of 17.9 ng/mL and an AUC ([6]; 15 mg/m2, AUC24, Day 1, dose group 15 mg/m^2) of 284 ng·h/mL. For the same molecule, the AUC ([6]; 15 mg/m2, AUC24, Day 12, dose group 15 mg/m^2) was 281 ng·h/mL, the Cmax ([6]; 15 mg/m2, Cmax, Day 1, dose group 15 mg/m^2) was 26.9 ng/mL and the Cmax ([6]; 15 mg/m2, Cmax, Day 12, dose group 15 mg/m^2) was 38.1 ng/mL. It also gave an AUC ([6]; 20 mg/m2, AUC24, Day 1, dose group 20 mg/m^2) of 271 ng·h/mL, an AUC ([6]; 20 mg/m2, AUC24, Day 12, dose group 20 mg/m^2) of 442 ng·h/mL and a Cmax ([6]; 20 mg/m2, Cmax, Day 1, dose group 20 mg/m^2) of 28.8 ng/mL. The Cmax ([6]; 20 mg/m2, Cmax, Day 12, dose group 20 mg/m^2) was 64.6 ng/mL, the pharmacokinetics versus dose ([7]; 5-30 mg/m^2 per day for five days during a 21 day cycle) was “increased proportionally with dose” and the AUC ([7]; human, in vivo, 20 mg/m2) was 412 ng·h/mL. For the same molecule, the “Predicted AUCinf” value ([8]; dose 200 mg/m^2) was 6992, the “Predicted Cmax” value ([8]; dose 200 mg/m^2) was 549 and the “Predicted AUCinf” value ([8]; dose 240 mg/m^2) was 7679. For the same molecule, the “Predicted Cmax” value ([8]; dose 240 mg/m^2) was 600, the “Predicted AUCinf” value ([8]; dose 280 mg/m^2) was 8253 and the “Predicted Cmax” value ([8]; dose 280 mg/m^2) was 643. For the same molecule, the “Predicted AUCinf” value ([8]; dose 320 mg/m^2) was 10189, the “Predicted Cmax” value ([8]; dose 320 mg/m^2) was 752 and the Cmax (clinical [9]; 240 mg/m2, Observed Mean (Cmax)) was 798 ng/mL. For the same molecule, the AUC0-inf (clinical [9]; 240 mg/m2, Observed Mean AUCinf) was 8150 ng·h/mL, the Cmax (clinical [9]; 280 mg/m2, Observed Mean (Cmax)) was 763 ng/mL and the AUC0-inf (clinical [9]; 280 mg/m2, Observed Mean AUCinf) was 6980 ng·h/mL. It also gave a Cmax (clinical [9]; 320 mg/m2, Observed Mean (Cmax)) of 1060 ng/mL, an AUC0-inf (clinical [9]; 320 mg/m2, Observed Mean AUCinf) of 14200 ng·h/mL and a Cmax (clinical [9]; po, 240 mg/m2, Cmax) of 668 ng/mL. It also gave a Tmax (clinical [9]; po, 240 mg/m2, Tmax) of 3 h, an AUC (clinical [9]; po, 280 mg/m2, AUC24) of 5020 ng·h/mL and an AUC0-inf (clinical [9]; po, 280 mg/m2, AUCinf) of 6010 ng·h/mL. For the same molecule, the AUC(0-t) (clinical [9]; po, 280 mg/m2, AUClast) was 5890 ng·h/mL, the Cmax (clinical [9]; po, 280 mg/m2, Cmax) was 736 ng/mL and the Tmax (clinical [9]; po, 320 mg/m2, Tmax) was 3 h. For the same molecule, the AUC (clinical [10]; 5 mg/m2, AUC24) was 50.9 ng·h/mL, the Cmax (clinical [10]; 5 mg/m2, Cmax) was 6.52 ng/mL and the AUC (clinical [10]; 10 mg/m2, AUC24) was 110 ng·h/mL. It also gave a Cmax (clinical [10]; 10 mg/m2, Cmax) of 14 ng/mL, an AUC (clinical [10]; 15 mg/m2, AUC24) of 194 ng·h/mL and a Cmax (clinical [10]; 15 mg/m2, Cmax) of 20.6 ng/mL. For the same molecule, the AUC (clinical [10]; 20 mg/m2, AUC24) was 277 ng·h/mL, the Cmax (clinical [10]; 20 mg/m2, Cmax) was 31.9 ng/mL and the AUC (clinical [10]; 25 mg/m2, AUC24) was 703 ng·h/mL. For the same molecule, the Cmax (clinical [10]; 25 mg/m2, Cmax) was 63.6 ng/mL, the AUC (clinical [10]; 30 mg/m2, AUC24) was 736 ng·h/mL and the Cmax (clinical [10]; 30 mg/m2, Cmax) was 57.3 ng/mL. The “response of stable disease” value (advanced malignancies) was 9 out of 21.
